Measured values from paper PMC5007552, “The hVps34‐SGK3 pathway alleviates sustained PI3K/Akt inhibition by stimulating mTORC1 and tumour growth” (The EMBO Journal, 2016).
pIC50: −log10 of the molar value.

Experiments:
SGK3 [1] = target: T1, SGK3 (Homo sapiens, UniProt Q96BR1); assay: IC50 on recombinant SGK3; type: biochemical; settings: recombinant kinase
T1 sequence (Q96BR1 1-496): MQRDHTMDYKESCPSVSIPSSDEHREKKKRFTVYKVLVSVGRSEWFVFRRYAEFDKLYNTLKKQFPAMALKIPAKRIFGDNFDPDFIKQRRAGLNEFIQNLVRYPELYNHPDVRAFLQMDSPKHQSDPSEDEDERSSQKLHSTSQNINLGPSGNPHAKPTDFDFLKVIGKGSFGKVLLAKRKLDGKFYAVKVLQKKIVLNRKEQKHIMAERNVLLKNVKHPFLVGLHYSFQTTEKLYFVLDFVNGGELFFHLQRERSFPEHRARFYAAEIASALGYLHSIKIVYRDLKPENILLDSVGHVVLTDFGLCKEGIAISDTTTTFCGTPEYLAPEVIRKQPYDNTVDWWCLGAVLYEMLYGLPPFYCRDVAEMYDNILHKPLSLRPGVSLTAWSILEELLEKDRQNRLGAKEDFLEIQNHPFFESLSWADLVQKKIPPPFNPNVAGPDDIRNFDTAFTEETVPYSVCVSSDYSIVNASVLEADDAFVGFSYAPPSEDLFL
Procedure: (§1) The result for each kinase is presented as a mean kinase activity of the reaction taken in triplicate relative to a control reaction where the inhibitors were omitted. […] SGK3 was immunoprecipitated from cell lysates and subjected to in vitro kinase assay by measuring phosphorylation of the Crosstide substrate peptide in the presence of 0.1 mM [γ‐^32P]ATP in a 30 min 30°C reaction (upper panel). Kinase reactions are presented as means ± SD for triplicate reaction.
(§2) Appendix Figure S1. […] (A) Chemical struc tures of
(§3) Sano/f_i-14g, -14i and -14n compounds. (B) IC50 values of inhibitors on indicated recombinant k inases. […]

MLK1 = MLK1 (Homo sapiens, UniProt P80192); assay: IC50 on recombinant MLK1; type: biochemical; settings: Fig 5B / Appendix Fig S1B, recombinant kinase, unit inferred
Procedure: as §1, §2, §3

PKBa = PKBa (Homo sapiens, UniProt P31749); assay: IC50 on recombinant PKBa (Akt1); type: biochemical; settings: Fig 5B / Appendix Fig S1B, recombinant kinase, unit inferred
Procedure: as §1, §2, §3

ZR-75-1 cells = assay: Immunoblot of Akt/mTORC1 pathway markers (Akt, PRAS40, TSC2, S6K1, Rictor, S6, 4EBP1) in ZR-75-1 cells; type: cell-based, human
Procedure: Kinase reactions are presented as means ± SD for triplicate reaction. Immunoprecipitates (IP) were also analysed by immunoblot with the indicated antibodies. • SGK3 was knocked down in ZR‐75‐1 cells by using shRNA probe B and compared to a control shRNA probe, named sh scramble. After infection, the cells were kept for 2 days in puromycin selection media and then seeded for the experiment. The cells were treated with 1 μM MK‐2206 for 1 h or 5 days. The cell lysates were subjected to immunoblot analysis with the indicated antibodies.
The cell lysates were analysed by immunoblot using the antibody against phosphorylated Akt phosphorylation consensus motif (RxRxxpS/pT).
HEK293 cells were purchased from the American Tissue Culture Collection (ATCC). Cells were cultured in RPMI or DMEM media supplemented with 10% (v/v) foetal bovine serum, 2 mM L‐glutamine, 100 U/ml penicillin and 0.1 mg/ml streptomycin. Inhibitor treatments were carried out as described in figure legends. During 5 days inhibitor treatments, the media was changed after 72‐h intervals. The cells were lysed in buffer containing 50 mM Tris–HCl (pH 7.5), 150 mM NaCl, 1 mM EDTA, 1 mM EGTA, 1 mM sodium orthovanadate, 10 mM sodium glycerophosphate, 10 mM sodium pyrophosphate, 0.27 M sucrose, 0.1% (v/v) 2‐mercaptoethanol, 1 mM benzamidine and 0.1 mM PMSF. Lysates were clarified by centrifugation at 16,000 g for 10 min at 4°C. Protein concentration was calculated using Bradford assay (Thermo Scientific). Immunoblotting and immunoprecipitation were performed using standard procedures. The signal was developed using ECL Western Blotting Detection Kit (Amersham) on Amersham Hyperfilm ECL film (Amersham).

SGK3 [2] = target: T1, SGK3; assay: Immunoprecipitated endogenous SGK3 kinase activity (Crosstide) and SGK3 phosphorylation from treated cells; type: cell-based; set-up: we immunoprecipitated endogenous SGK3 and assessed protein kinase activity; endogenous in cells; host or cells: ZR-75-1; settings: 1 h, ZR-75-1 cells
Procedure: (§4) Briefly, SGK3, Akt and S6K1 were immunoprecipitated from 1 mg ZR‐75‐1 cell lysate. Immunoprecipitates were washed in sequence with lysis buffer containing high salt concentration (500 mM NaCl), lysis buffer and Buffer A (50 mM Tris pH 7.5, 0.1 mM EGTA). Kinase activity was assessed by measuring [γ‐^32P]ATP incorporation into Crosstide substrate peptide [[…]]. The reactions were carried in 40 μl total volume containing 0.1 mM [γ‐^32P]ATP (400–1,000 cpm/pmol), 10 mM magnesium acetate and 30 μM Crosstide peptide. Reactions were terminated by adding 10 μl 0.1 M EDTA and spotting 40 μl of the resulting reaction mix on P81 paper, which were immediately immersed into 50 mM orthophosphoric acid. Papers were washed at least five times in 50 mM orthophosphoric acid, rinsed in acetone and air‐dried. Radioactivity was quantified by Cerenkov counting. One unit of enzyme activity was defined as amount of enzyme that catalyses incorporation of 1 nmol of [γ‐^32P]ATP into the substrate over 1 min.

S6K1 = assay: Immunoprecipitated S6K1 kinase activity (Crosstide) from treated ZR-75-1 cells; type: cell-based, human; settings: 1 μM MK-2206, 1 h
Procedure: SGK3 (upper panel) and S6K1 (middle panel) were immunoprecipitated and subjected to in vitro kinase assay by measuring phosphorylation of the Crosstide substrate peptide in the presence of 0.1 mM [γ‐^32P]ATP in a 30 min 30°C reaction. Kinase reactions are presented as means ± SD for triplicate reaction. Immunoprecipitates (IP) were also analysed by immunoblot with the indicated antibodies. The cell lysates were also analysed by immunoblot using the indicated antibodies (lower panel).
as §4, with “One unit of enzyme activity was defined as amount of enzyme that catalyses incorporation of 1 nmol of [γ‐^32P]ATP into the substrate over 1 min.” left out

[3] = 1–3 μM 14h, 1 h, ZR-75-1 in serum
[4] = ZR-75-1, 5 days GDC0941 or MK-2206, then 3 μM 14h 1 h

PKBa, sequence (P31749 whole entry): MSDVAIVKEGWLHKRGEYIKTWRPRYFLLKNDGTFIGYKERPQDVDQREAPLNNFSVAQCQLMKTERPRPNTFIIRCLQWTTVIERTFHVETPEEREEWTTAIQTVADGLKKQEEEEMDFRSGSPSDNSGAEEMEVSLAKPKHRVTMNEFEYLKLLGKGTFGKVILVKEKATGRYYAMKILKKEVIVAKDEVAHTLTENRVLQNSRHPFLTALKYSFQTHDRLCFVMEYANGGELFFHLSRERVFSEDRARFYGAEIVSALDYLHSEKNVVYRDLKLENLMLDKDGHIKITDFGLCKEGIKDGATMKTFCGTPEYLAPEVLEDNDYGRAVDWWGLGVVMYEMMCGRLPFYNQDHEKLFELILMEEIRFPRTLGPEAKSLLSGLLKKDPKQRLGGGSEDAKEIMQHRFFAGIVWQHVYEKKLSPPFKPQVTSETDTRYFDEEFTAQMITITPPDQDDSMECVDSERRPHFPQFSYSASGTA
MLK1, sequence (P80192 whole entry, species assumed): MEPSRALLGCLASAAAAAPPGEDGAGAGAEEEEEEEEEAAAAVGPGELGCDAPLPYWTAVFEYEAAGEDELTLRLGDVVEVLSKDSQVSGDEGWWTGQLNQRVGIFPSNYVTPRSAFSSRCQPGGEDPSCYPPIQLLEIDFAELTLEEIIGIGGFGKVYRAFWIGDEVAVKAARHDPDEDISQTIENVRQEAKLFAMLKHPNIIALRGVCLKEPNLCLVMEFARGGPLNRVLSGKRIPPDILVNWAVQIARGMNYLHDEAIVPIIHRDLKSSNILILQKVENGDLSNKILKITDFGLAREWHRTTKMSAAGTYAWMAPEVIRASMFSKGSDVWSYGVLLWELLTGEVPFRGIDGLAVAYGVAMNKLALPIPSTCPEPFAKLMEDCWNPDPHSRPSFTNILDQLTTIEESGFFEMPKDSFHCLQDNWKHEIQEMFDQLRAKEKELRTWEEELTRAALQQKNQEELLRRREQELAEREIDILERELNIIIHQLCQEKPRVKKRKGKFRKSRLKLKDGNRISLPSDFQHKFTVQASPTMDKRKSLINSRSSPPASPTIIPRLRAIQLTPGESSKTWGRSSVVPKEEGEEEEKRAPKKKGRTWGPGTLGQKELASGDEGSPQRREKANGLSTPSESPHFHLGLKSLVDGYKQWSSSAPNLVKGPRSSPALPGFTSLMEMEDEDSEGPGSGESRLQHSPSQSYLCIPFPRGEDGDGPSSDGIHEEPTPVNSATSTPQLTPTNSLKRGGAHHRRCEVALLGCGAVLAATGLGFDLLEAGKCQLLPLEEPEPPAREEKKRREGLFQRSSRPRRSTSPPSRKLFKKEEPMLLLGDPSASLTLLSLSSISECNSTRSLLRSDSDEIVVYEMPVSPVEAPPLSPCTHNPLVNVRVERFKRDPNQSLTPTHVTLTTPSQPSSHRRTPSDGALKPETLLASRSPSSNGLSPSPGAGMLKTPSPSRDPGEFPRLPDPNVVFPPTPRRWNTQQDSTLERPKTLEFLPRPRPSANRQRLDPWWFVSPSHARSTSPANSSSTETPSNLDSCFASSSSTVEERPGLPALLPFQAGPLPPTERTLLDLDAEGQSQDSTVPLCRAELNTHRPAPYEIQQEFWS

SMILES	pIC50 (SGK3 [1])	pIC50 (MLK1)	pIC50 (PKBa)	S6K1 and S6 protein phosphorylation (ZR-75-1 cells; 10 μM 14h, 1 h, ZR-75-1 in serum)	PRAS40 (Akt-specific substrate) phosphorylation (ZR-75-1 cells; [3])	Rictor (Thr1135) and S6 protein (Ser240/244) phosphorylation (ZR-75-1 cells; [3])	4EBP1 phosphorylation (ZR-75-1 cells; [4])	TSC2 phosphorylation (ZR-75-1 cells; [4])	TSC2, S6K1, Rictor, S6 protein or 4EBP1 phosphorylation or S6K1 activity (ZR-75-1 cells; ZR-75-1 in serum without prolonged PI3K or Akt inhibitor treatment, 3 μM 14h)	reduction of SGK3 activity and phosphorylation (SGK3 [2]; 0.1 μM 14h)	SGK3 activity and phosphorylation (SGK3 [2]; 1 μM 14h)	reduction of S6K1 activity (S6K1)
Nc1n[nH]c2nc(-c3ccc(NS(=O)(=O)c4cc(Cl)ccc4Cl)cc3)cnc12 [14h]	8.40	6.67	< 5.00	moderate reduction	not dephosphorylated	failed to significantly inhibit	not markedly reduced	suppressed phosphorylation of TSC2	did not inhibit	~ 80%	undetectable	–
NC1(c2ccc(-c3nc4ccn5c(=O)[nH]nc5c4cc3-c3ccccc3)cc2)CCC1 [MK-2206]	–	–	–	–	–	–	–	–	–	–	–	~ 10 fold
